Source: patent publication US20260327317A1, “PROTEASE-CLEAVABLE MOIETIES AND METHODS OF USE THEREOF” (CytomX Therapeutics, Inc., priority 2022, published 2026)
Entries after “also recorded” stand apart in the source; their conditions may differ.

Tests used:
head and neck tumor B = assay: Quantitative zymography (QZ) assay, patient-derived tumor sample; parameters: species or system human (patient-derived); details: 20 μg/mL, 37° C, 48 hours
Description: (§1) Protease activities in patient-derived tumor samples were evaluated using the quantitative zymography (QZ) assay. […] Tumor tissue samples from two head and neck cancer patients and one triple negative breast cancer (TNBC) patient were analyzed utilizing activatable antibodies of the present disclosure with the CM 6006 (SEQ ID NO: 7).
(§2) The protease activity in the tumor sections of 12 μm thickness was assessed. […] An equal volume of AF647-labeled c225 activatable antibodies prepared at 40 μg/mL in QZ buffer were then added directly onto the tissue containing the buffer to form a mixture and incubated at a final concentration of 20 μg/mL in a humidified chamber at 37° C. for 48 hours.
(§3) Following 48 hours of incubation, supernatants were collected from each incubated mixture and transferred into a well of a 96-well PCR plate for assay by capillary electrophoresis. Each supernatant sample was mixed with Pico Sample Buffer (Perkin Elmer) containing 2-beta-mercaptoethanol at four parts sample and one part of Pico Sample Buffer and then heated at 95° C. for 10 minutes. The composition of each supernatant sample was then assessed using the LabChip GXII Touch (Perkin Elmer) with the HT Pico Protein Express 100 protocol (Perkin Elmer). Protein Express Assay LabChips (Perkin Elmer #760499) were set up using the protocol of the Protein Pico Assay Reagent Kit (Perkin Elmer #760498).

head and neck tumor A = assay: as above; parameters: species or system human (patient-derived); details: 20 μg/mL, 37° C, 48 hours
Description: as §1, §2, §3

TNBC tumor = assay: as above; parameters: species or system human (patient-derived); details: 20 μg/mL, 37° C, 48 hours
Description: as §1, §2, §3

[1] = In vivo stability of activatable antibodies in mice (cleaved activatable antibody in plasma); details: 10 mg/kg intraperitoneal; for In Vivo % Activation (nu/nu, day 7): day 7, plasma; for in vivo stability vs control, in words: nu/nu mice, day 7, compared to control CM 2001
TMPRSS11 = assay: In vitro cleavability of activatable antibodies by TMPRSS11 (capillary electrophoresis); format: biochemical, human; details: role: substrate; for Cleavability (%) TMPRSS11 (4 h): 500 nM activatable antibody, 10 nM TMPRSS11D, 37° C, pH 7.4; for extent of cleavage by TMPRSS11 vs control CM 2001, in words: 4 h, compared to control CM 2001
[2] = test system: H292 (human lung cancer cell line) xenograft tumors; assay: In vivo efficacy in mouse H292 xenograft model; parameters: species or system human tumor cells in female nu/nu mice; details: 9 mg/kg intraperitoneal on day 1; nu/nu mice
Description: The study provided herein evaluates the in vivo efficacy of activatable antibodies of the present disclosure with CM 6006 (SEQ ID NO: 7) using a mouse H292 (human lung cancer cell line) xenograft model.
(§4) In this study, H292 (human lung cancer-derived cell line) subcutaneous xenograft tumors in female nu/nu mice of 6-8 weeks of age were grown to an average volume of 117-215 mm^3. […] The mice were then randomized into groups of 8 mice each and each group was dosed intraperitoneally on day 1 with 9 mg/kg of the indicated test article.

plasmin = assay: In vitro cleavability of activatable antibodies by plasmin (capillary electrophoresis); format: biochemical, human; parameters: key to Cleavability (%) Plasmin (4 h): “—” indicates below limit of quantification; details: role: substrate; for Cleavability (%) Plasmin (4 h): 500 nM activatable antibody, 10 nM plasmin, 37° C; for extent of cleavage by plasmin vs control CM 2001, in words: 4 h, compared to control CM 2001
[3] = test system: H292 (human lung cancer cell line) xenograft tumors; assay: Intra-tumoral activation assay in H292 xenograft tumors; format: in vivo, human tumor cells in female nu/nu mice; details: tumors collected 7 days after dosing, 9 mg/kg intraperitoneal
Description: as §4
Tumors were collected from the mice 7 days after dosing. The tumor tissue was lysed with immunoprecipitation buffer (Pierce) containing HALT protease inhibitor cocktail (Thermo Fisher) and EDTA and lysed using the Barocycler (Pressure Bioscience).

[4] = test system: human bone marrow aspirates; assay: In situ stability in human bone marrow aspirates; details: 20 μg/mL, 37° C, 21 or 24 hours, N=2 donors, normalized to CM 2001
Description: The study provided herein evaluates the in situ stability of activatable antibodies of the present disclosure with the CM 6006 (SEQ ID NO: 7) by human bone marrow aspirates. Fresh human bone marrow aspirates from healthy donors were purchased from Stemcell Technology Inc. (Catalog No. 70502) and AllCells Inc. and were processed to lyse red blood cells and washed 5 times with buffer or serum-free media. […] An equal volume of AF647-labeled c225 activatable antibodies prepared at 40 μg/mL in serum-free RPMI media were then added to form a mixture and incubated at a final concentration of 20 μg/mL at 37° C. for 21 or 24 hours. Cells were pelleted through centrifugation for 5 min at 300×g. Supernatants were collected from each incubated mixture and transferred into a well of a 96-well PCR plate for assay by capillary electrophoresis. Each supernatant sample was mixed with Pico Sample Buffer (Perkin Elmer) containing 2-beta-mercaptoethanol at four parts sample and one part of Pico Sample Buffer and then heated at 95° C. for 10 minutes. Substrate cleavage was measured by capillary electrophoresis using a LabChip® GXII Touch™ system (Perkin Elmer) with the HT Pico Protein Express 100 protocol (Perkin Elmer). Protein Express Assay LabChips (Perkin Elmer #760499) were set up using the protocol of the Protein Pico Assay Reagent Kit (Perkin Elmer #760498).

MT-SP1 [5] = assay: In vitro cleavability of activatable antibodies by MT-SP1 (capillary electrophoresis); format: biochemical, human; details: role: substrate; for Cleavability (%) MT-SP1 (1.5h) / Cleavability (%) MT-SP1 (4 h): 500 nM activatable antibody, 37° C, pH 7.4; for Cleavability (%) MT-SP1 (1.5h): 10 nM MT-SP1, 1.5 h; for Cleavability (%) MT-SP1 (4 h): 10 nM MT-SP1, 4 h; for extent of cleavage by MT-SP1 (matriptase) vs control CM 2001, in words: compared to control CM 2001
MT-SP1 [6] = assay: Cleavability kinetics (kcat/KM) of CMs in activatable antibodies with MT-SP1; format: biochemical, human; details: role: substrate; compared to control CMs 2001 and 0001

## APRSALAHGLF [compound 5007, reference compound]
Head and neck tumor B
  light chain (LC) activation, in words: Comparable levels of LC activation
Head and neck tumor A
  light chain (LC) activation, in words: Comparable levels of LC activation
TNBC tumor
  light chain (LC) activation, in words: Comparable levels of LC activation

## LSGRSDNH [compound 0001, reference compound]
[1]
  In Vivo % Activation (nu/nu, day 7): 20%

## SDHQSRS [compound 6006]
[1]
  In Vivo % Activation (nu/nu, day 7): 18.4%
  in vivo stability vs control, in words: higher in vivo stability than the activatable antibody with the control CM 2001
TMPRSS11
  Cleavability (%) TMPRSS11 (4 h): 100.0%
  extent of cleavage by TMPRSS11 vs control CM 2001, in words: to a greater extent than the control CM 2001
[2]
  in vivo efficacy (tumor volume), in words: in vivo efficacy that is comparable with the activatable antibody with the control CM 2001 (SEQ ID NO: 78) and similar to cetuximab
Head and neck tumor B
  light chain (LC) activation, in words: Comparable levels of LC activation
Head and neck tumor A
  light chain (LC) activation, in words: Increased LC activation is observed in the activatable antibody with CM 6006 (SEQ ID NO: 7) compared to the activatable antibody with the control CM 3001; also recorded: Comparable levels of LC activation
TNBC tumor
  light chain (LC) activation, in words: Increased LC activation is observed in the activatable antibody with CM 6006 (SEQ ID NO: 7) compared to the activatable antibody with the control CM 3001; also recorded: Comparable levels of LC activation
plasmin; pH 7.4
  Cleavability (%) Plasmin (4 h): 15.1%
plasmin
  extent of cleavage by plasmin vs control CM 2001, in words: to a greater extent than the control CM 2001
[3]
  intra-tumoral activation, in words: cleaved by proteases present in the tumor resulting in activation of the antibody
[4]
  resistance to cleavage in situ in bone marrow, in words: resistance to cleavage in situ in the bone marrow as compared to activatable antibodies with control CMs 2001 (SEQ ID NO: 78), 5007 (APRSALAHGLE; SEQ ID NO: 80) (WO2020118109) and 3001
MT-SP1 [5]
  Cleavability (%) MT-SP1 (1.5h): 33.1%
  Cleavability (%) MT-SP1 (4 h): 74.1%
  extent of cleavage by MT-SP1 (matriptase) vs control CM 2001, in words: substantially cleaved by MT-SP1; also recorded: to a greater extent than the control CM 2001
MT-SP1 [5]; 1.5 h, lower bound stated in text
  cleavability percentage for MT-SP1: greater than 30%

## HQSRS [compound 6001]
[1]
  In Vivo % Activation (nu/nu, day 7): 24.2%
  in vivo stability vs control, in words: higher in vivo stability than the activatable antibody with the control CM 2001
TMPRSS11
  Cleavability (%) TMPRSS11 (4 h): 100.0%
  extent of cleavage by TMPRSS11 vs control CM 2001, in words: to a greater extent than the control CM 2001
plasmin; pH 7.4
  Cleavability (%) Plasmin (4 h): 11.1%
plasmin
  extent of cleavage by plasmin vs control CM 2001, in words: to a greater extent than the control CM 2001
MT-SP1 [6]
  cleavability from kcat/KM results vs control CMs, in words: higher cleavability by at least MT-SP1 than control CMs 2001 (SEQ ID NO: 78) and 0001 (SEQ ID NO: 77)
MT-SP1 [5]
  Cleavability (%) MT-SP1 (1.5h): 56.9%
  Cleavability (%) MT-SP1 (4 h): 100.0%
  extent of cleavage by MT-SP1 (matriptase) vs control CM 2001, in words: substantially cleaved by MT-SP1; also recorded: to a greater extent than the control CM 2001

## ISSGLLSGRSDNH [compound 2001, reference compound]
[1]
  In Vivo % Activation (nu/nu, day 7): 32.1%
TMPRSS11
  Cleavability (%) TMPRSS11 (4 h): 9.8%
plasmin; below limit of quantification
  Cleavability (%) Plasmin (4 h): —
MT-SP1 [5]
  Cleavability (%) MT-SP1 (1.5h): 10.9%
  Cleavability (%) MT-SP1 (4 h): 19.4%
